Source: patent US12024571B2, “Anti-erythropoietin receptor peptide” (Epo-Med Inc., priority 2018, dated 2024)
Bridge positions count the residues as written; N and C are the ends. Square brackets hold non-standard residues; d marks the D form. Ala(benzothiazol-2-yl) = N[C@@H](Cc1nc2ccccc2s1)C(=O)O

Legend:
[1] = system: human pancreatic cancer derived AsPC-1 cells; test: Tumor growth in AsPC-1 cancer-bearing nude mouse model; assay type: in vivo; details: intraperitoneal
Protocol: (§1) Human pancreatic cancer derived AsPC-1 cells (ECACC, 96020930) were cultured and collected in the same manner as Example 3, suspended in the RPMI-1640 medium described above comprising 10% Matrigel (BD Bioscience, 354234), and transplanted subcutaneously to the right side on the back of a 6-week-old male nude mouse (SLC, BALB/cSlc-nu/nu) (5×10^6/0.1 mL/mouse). The length (L) and width (W) of the tumor were measured using a digital caliper. When the tumor volume (V) calculated from the formula V=L×W^2/2 reached about 150 to 200 mm^3, the mice were separated into groups and administered with test compounds (total of 8 compounds including GT-11263). Saline was administered to a control group. The compounds were administered intraperitoneally (0.1 mL/mouse, 3 to 5 mice/test compound) 3 times daily (one hour interval, a total of 0.2 mg/day), 3 times a week for 2 weeks. The tumor size and body weight were measured twice a week to monitor the status of tumor growth and the effect of the administration of test compounds.
In the same manner as Example 5, human pancreatic cancer derived AsPC-1 cells were transplanted subcutaneously to the right side on the back of a 6-week-old male nude mouse (SLC, BALB/cSlc-nu/nu) (5×10^6/0.1 mL/mouse). The length (L) and width (W) of the tumor were measured using a digital caliper. When the tumor volume (V) calculated from the formula V=L×W^2/2 reached about 150 to 200 mm^3, the mice were separated into groups and administered with test compounds (GT-11269, GT-11309, and GT-11350). Saline was administered to a control group. The compounds were administered intraperitoneally (0.1 mL/mouse, 5 mice/test compound) 3 times daily (one hour interval, a total of 0.5 mg/day), twice a week for 4 weeks. The tumor size and body weight were measured twice a week to monitor the effect of the administration of test compounds (FIG. 45).
(§2) In the same manner as Example 5, human pancreatic cancer derived AsPC-1 cells were transplanted subcutaneously to the right side on the back of a 6-week-old male nude mouse (SLC, BALB/cSlc-nu/nu), and when the tumor volume (V) reached about 150 to 200 mm^3, the mice were separated into groups and administered with test compounds (GT-11350). Saline was administered to a control group. The compounds were administered intraperitoneally (0.1 mL/mouse) 3 times daily (one hour interval, a total of 0.1 mg, 0.2 mg, or 0.4 mg/day), twice a week for 4 weeks. The tumor size and body weight were measured twice a week to monitor the effect of the dose of test compounds (FIG. 49).
as §2, with “of” for “of 0.1 mg,”, “mg/day)” for “mg,”, “once daily (0.2” for “0.4”, “administration” for “dose”, “compounds.” for “compounds (FIG. 49).”

[2] = system: human leukemia derived UT-7 cells; test: Epo dependent UT-7 cell proliferation, WST assay; assay type: cell-based; details: Epo 1 U/mL, 4 days; GT-11309 1 to 100 μM, antibodies 1 to 100 μg/mL; FIG. 42
Protocol: Human leukemia derived UT-7 cells (provided by Dr. Fujita at the Hokkaido University) were passaged (twice/week) under the condition of 37° C. and 5% CO2-95% air using a D-MEM medium (Sigma, D5796-500 ML) comprising recombinant human erythropoietin (Epo, 2 U/mL) and 10% fetal bovine serum (biowest, S182-H-500), and cultured for a total of 9 weeks. The Epo treated UT-7 cells were washed three times and seeded on a 96-well microplate (1×10^4/well). An anti-Epo monoclonal antibody (clone R6, provided by Dr. Masuda at the Kyoto University, 1 to 100 μg/mL), anti-EpoR monoclonal antibody (clone 713210, R&D Systems, MAB3073, 1 to 100 μg/mL) or GT-11309 (1 to 100 μM), in the presence of Epo (0 to 10 U/mL) or Epo (1 U/mL), was added. After 4 days of culture, the cell proliferation capability for each well was measured as absorbance at 450 nm by a WST assay (DOJINDO LABORATORIES, Cell Counting Kit-8).

[3] = system: human liver cancer derived HepG2 cells; test: Lethal effect of synthetic peptides on HepG2 cells (Trypan blue positive cell count); assay type: cell-based; details: 120, 60, 30 or 15 μM, 24 hours; FIGS. 34 to 37
[4] = system: human T cell leukemia derived ATL-2 cells; test: ATL-2 cell proliferation, WST assay; assay type: cell-based; details: 150 μM, 72 hours, FIG. 39
Protocol: Human T cell leukemia derived ATL-2 cells (provided by Dr. Maeda at the Kyoto University) were passaged (twice/week) under the condition of 37° C. and 5% CO2-95% air using an RPMI-1640 medium (Sigma, R8758-500 mL) comprising 10% fetal bovine serum (biowest, S182H-500). The ATL-2 cells were collected from a culture flask. The cells were suspended in the medium and then seeded on a 96-well microplate (3×10^3/0.05 mL/well). After culturing the cells overnight, a medium comprising the test compounds (total of 32 compounds, final concentration of 150 μM) was added (0.05 mL/well, 3 wells/test compound). After 72 hours, the cell proliferation capability for each well was measured by a WST assay (DOJINDO LABORATORIES, Cell Counting Kit-8), and the inhibition ratio for each test compound against the control (test compound-free well) was calculated.

[5] = system: human pancreatic cancer derived AsPC-1 cells; test: AsPC-1 cell proliferation, WST assay; assay type: cell-based; details: 10, 30 or 100 μM, 72 hours, FIG. 43
Protocol: Human pancreatic cancer derived AsPC-1 cells (ECACC, 96020930) were passaged (twice/week) under the condition of 37° C. and 5% CO2-95% air using an RPMI-1640 medium (Sigma, R8758-500 ML) comprising 10% fetal bovine serum (biowest, S182H-500) and 1 mM sodium pyruvate (gibco, 11360-070). The AsPC-1 cells were collected from a culture dish using 0.05% trypsin-0.02% EDTA solution (Sigma, T4174-100 ML). The cells were suspended in the medium and then seeded on a 96-well microplate (3×10^3/0.05 mL/well). After culturing the cells overnight, a medium comprising the test compounds (total of 43 compounds, final concentration of 150 μM) was added (0.05 mL/well, 3 wells/test compound). After 72 hours, the cell proliferation capability for each well was measured by a WST assay (DOJINDO LABORATORIES, Cell Counting Kit-8), and the inhibition ratio for each test compound against the control (test compound-free well) was calculated.
A WST assay is a viable cell count measuring method, which uses water-soluble tetrazolium salt WST-8 as a coloring reagent and uses water-soluble formazan generated by reduction of WST-8 as an indicator of viable cell count. NADH produced by a dehydrogenase in a cell converts WST-8 to water-soluble formazan. Since the generated water-soluble formazan has the maximum absorbance at about 450 nm, the viable cell count is indicated by measuring the absorbance at such a wavelength region.
Human pancreatic cancer derived AsPC-1 cells (ECACC, 96020930) were cultured, collected, and seeded on a 96-well microplate (3×10^3/0.05 mL/well) in the same manner as Example 3. After culturing the cells overnight, a medium comprising the test compounds (10, 30, or 100 μM) was added (0.05 mL/well, 3 wells/test compound). After 72 hours, the cell proliferation capability for each well was measured by a WST assay (DOJINDO LABORATORIES, Cell Counting Kit-8), and the inhibition ratio for each test compound against the control (test compound-free well) was computed.

[6] = Body weight of AsPC-1 cancer-bearing mice given peptides; assay type: in vivo, mouse; details: total 0.1, 0.2 or 0.4 mg/day, twice a week for 4 weeks; FIG. 49
Protocol: as §1, with “The compounds were administered intraperitoneally (0.1 mL/mouse, 3 to 5 mice/test compound) 3 times daily (one hour interval, a total of 0.2 mg/day), 3 times a week for 2 weeks.” left out
In the same manner as Example 5, human pancreatic cancer derived AsPC-1 cells were transplanted subcutaneously to the right side on the back of a 6-week-old male nude mouse (SLC, BALB/cSlc-nu/nu) (5×10^6/0.1 mL/mouse). The length (L) and width (W) of the tumor were measured using a digital caliper. When the tumor volume (V) calculated from the formula V=L×W^2/2 reached about 150 to 200 mm^3, the mice were separated into groups and administered with test compounds (GT-11269, GT-11309, and GT-11350). […]

[7] = system: human breast cancer derived HCC1395 cells; test: HCC1395 breast cancer cell proliferation, amount of ATP (CellTiter-Glo 2.0); assay type: cell-based; details: 0 to 100 μM, 72 hours; FIG. 44 left
Protocol: (§3) Human breast cancer derived HCC1395 cells (ATCC, CRL-2327) and HCC1806 (ATCC, CRL-2335) were cultured, collected, and seeded on a 384-well microplate (1×10^3 and 3×10^3/0.04 mL/well). After culturing the cells overnight, a medium comprising GT-11350 (0 to 100 μM) was added (0.01 mL/well). After 72 hours, the cell proliferation capability for each well against the control (test compound-free well) was calculated using the amount of ATP as an indicator, which was measured using CellTiter-Glo 2.0 (Promega, G9242).

[8] = Hematocrit value and blood hemoglobin concentration in AsPC-1 cancer-bearing mice; assay type: in vivo, mouse; details: day 4 from final administration, 0.1, 0.2 or 0.4 mg/day; FIG. 50
Protocol: (§4) Blood was drawn on day 6 from the final administration from an AsPC-1 cancer-bearing mouse administered with GT-11269, GT-11309, or GT-11350 by the same protocol, and the hematocrit value was measured by the capillary method using a high speed centrifuge. The blood hemoglobin concentration was also measured using a commercially available measurement kit (BioAssay Systems, DIHB-250) (FIG. 47).
as §4, with “4” for “6”, “with” for “with GT-11269, GT-11309, or”, “50).” for “47).”

[9] = system: human breast cancer derived HCC1806 cells; test: HCC1806 breast cancer cell proliferation, amount of ATP (CellTiter-Glo 2.0); assay type: cell-based; details: 0 to 100 μM, 72 hours; FIG. 44 right
Protocol: as §3

| blood hemoglobin concentration [8] | hematocrit value [8] | Substance | antitumor effect (relative tumor volume) ([1]; 3 times daily, total 0.2 mg/day, 3 times a week for 2 weeks, FIG. 40) | Epo dependent cancer cell proliferation (UT-7) [2] | HepG2 cell killing effect compared with YS12 (Trypan blue positive cells per 1 mm^2) [3] | proliferation inhibiting action on ATL-2 cells (inhibition ratio against control) [4] | proliferation inhibiting action against AsPC-1 cells (inhibition ratio against control) [5] | anti-tumor effect, 3 times daily versus once daily ([1]; 0.2 mg/day, 3 times daily or once daily, twice a week for 4 weeks, FIG. 51) | anti-tumor effect (relative tumor volume) by dose ([1]; 3 times daily, total 0.1, 0.2 or 0.4 mg/day, twice a week for 4 weeks, FIG. 49) | body weight [6] | proliferation suppressing capability against breast cancer cell line HCC1395 [7] | proliferation suppressing capability against breast cancer cell line HCC1806 [9] |
| --- | --- | --- | --- | --- | --- | --- | --- | --- | --- | --- | --- | --- |
|  |  | Ac-SCHYGPLT(2-benzothiazolylalanine)VCK-NH2 (Ac-SCHYGPLT[Ala(benzothiazol-2-yl)]VCK-NH2; disulfide 2-11 (inferred)) [GT-11309] | potent and had an early manifestation of effect | suppressed Epo dependent cancer cell proliferation | equivalent or greater than that of YS12 | potent proliferation inhibiting action | potent proliferation inhibiting action |  |  |  |  |  |
| none of the doses had an effect | none of the doses had an effect | Ac-SCHYGPMT(2-benzothiazolylalanine)VCK-NH2 [GT-11350] |  |  |  |  | potent proliferation inhibiting action | same anti-tumor effect for both 3 times daily and once daily administration methods | dose dependent anti-tumor effect | not affected | exhibited proliferation suppressing capability | exhibited proliferation suppressing capability |
